PubChem BioAssay (NCI)
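48-hour exposure; five concentrations; linearly interpolated endpoints. Abbreviation: GI50, concentration required for 50% inhibition of growth. TGI denotes the concentration required for complete inhibition of growth.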

Tests used:
P388 leukemia = assay: NCI tumour cell line growth inhibition, 48 h
P388/ADR leukemia = assay: NCI tumour cell line growth inhibition, 48 h

Row | Compound | TGI (P388 leukemia) | GI50 (P388 leukemia) | GI50 (P388/ADR leukemia) | TGI (P388/ADR leukemia)
1 | CCOC(=O)Nc1ccc2c(c1)N(C(=O)CCN(CC)CC)c1ccccc1S2 | 32.2 µM |  |  | 
2 | O=C(O)c1ccc(C(=O)O)c(C(=O)O)c1.[NH-]C1CCCCC1[NH-].[Pt+2] | 14.6 µM | 0.262 µM | 2.15 µM | > 100 µM
